What was measured:
Format in all cases: biochemical
[1] = target: T1, recombinant expressed rat FAAH (Rattus norvegicus, UniProt P97612); assay: FAAH hydrolysis assays with 14C-labeled fatty acid amide substrates (TLC, scintillation counting); conditions: for Rate of Hydrolysis: 35 μg transfected COS-7 cell protein, 5 minutes, 37° C.
T1 construct: expressed in transfected cells; host or cells: COS-7 cells, transient, pcDNA3; dounce-homogenised cell extract
T1 sequence (P97612 1-579): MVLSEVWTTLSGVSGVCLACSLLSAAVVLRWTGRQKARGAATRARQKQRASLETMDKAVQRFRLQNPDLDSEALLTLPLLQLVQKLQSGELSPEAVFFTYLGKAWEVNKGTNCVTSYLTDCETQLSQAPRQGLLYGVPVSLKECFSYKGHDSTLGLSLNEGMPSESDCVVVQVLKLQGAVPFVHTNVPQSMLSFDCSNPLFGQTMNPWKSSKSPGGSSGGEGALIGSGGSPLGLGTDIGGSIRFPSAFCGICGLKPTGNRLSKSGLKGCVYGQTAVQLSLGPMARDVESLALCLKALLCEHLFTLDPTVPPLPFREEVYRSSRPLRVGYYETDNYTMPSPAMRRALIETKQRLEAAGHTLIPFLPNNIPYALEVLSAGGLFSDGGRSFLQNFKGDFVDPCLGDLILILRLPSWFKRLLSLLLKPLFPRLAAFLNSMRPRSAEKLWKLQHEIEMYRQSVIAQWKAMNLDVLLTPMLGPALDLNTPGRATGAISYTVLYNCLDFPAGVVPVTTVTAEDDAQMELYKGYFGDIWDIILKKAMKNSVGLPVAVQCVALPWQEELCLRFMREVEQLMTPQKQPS
Procedure: Therefore, COS-7 cells transfected with the rat FAAH cDNA were assayed for anandamide hydrolase activity. To assess the enzymatic activity of the expressed recombinant fatty acid amide hydrolases of this invention on labeled anandamide, the following enzymatic assay was performed. ^14C-anandamide was synthesized as follows: 12.5 μCi (specific activity of 50 μCi/μM) of ^14C arachidonic acid (Moravek Biochemicals) was dissolved in 100 μl CH2Cl2, cooled to 0° C., and treated with excess oxalyl chloride. The reaction mixture was stirred at 25° C. for 6 hours, after which time the solvent was evaporated. The remaining residue was cooled to 0° C., treated with a large excess of ethanolamine, and stirred at 25° C. for 15 minutes. The reaction mixture was then partitioned between ethyl acetate and 2 M HCl, and the organic layer was washed with water and then evaporated to dryness. The resulting ^14C-anandamide was diluted with unlabeled anandamide to a final specific activity of 5 μCi/μM in ethanol. Approximately 1 μCi of ^14C-anandamide and 20 μl of dounce homogenized COS-7 cell extract were used for each anandamide hydrolase assay as detailed above for the oleamide hydrolase assays. Briefly, FAAH hydrolysis assays were conducted in triplicate with 100 μM substrate, 35 μg of rat transfected COS-7 cell protein for 5 minutes at 37° C. (except in the case of stearic amide, where due to low solubility, 20 μM substrate comparison to oleamide were conducted). Products were separated on TLC as described previously, scraped into scintillation fluid, and radioactivity was quantitated by scintillation counting. Substrate hydrolysis in the presence of equal amounts of untransfected COS-7 cell protein extract served as background control in all cases and was substracted from FAAH hydrolysis rates to give the data as presented below.
To further assess the substrate specificity spectrum of enyzmatic hydolytic activity of the recombinant expressed proteins of this invention, other ^14C-labeled fatty acid amides were synthesized as described in Section B6 and above for ^14C-oleamide, with the exception of anandamide as described.
Where indicated in the table the anandamide and oleamide hydrolysis rates are considered to be 100% of FAAH activity to which other fatty acid amide hydrolysis rates are compared.

[2] = target: T2, human recombinant expressed FAAH (Homo sapiens, UniProt O00519); assay: oleamide hydrolysis by COS-7 cells transfected with human oleamide hydrolase (TLC); conditions: versus control COS-7 cells
T2 construct: expressed in transfected cells; host or cells: COS-7 cells, transient, pcDNA3; dounce-homogenised cell extract
T2 sequence (O00519 1-579): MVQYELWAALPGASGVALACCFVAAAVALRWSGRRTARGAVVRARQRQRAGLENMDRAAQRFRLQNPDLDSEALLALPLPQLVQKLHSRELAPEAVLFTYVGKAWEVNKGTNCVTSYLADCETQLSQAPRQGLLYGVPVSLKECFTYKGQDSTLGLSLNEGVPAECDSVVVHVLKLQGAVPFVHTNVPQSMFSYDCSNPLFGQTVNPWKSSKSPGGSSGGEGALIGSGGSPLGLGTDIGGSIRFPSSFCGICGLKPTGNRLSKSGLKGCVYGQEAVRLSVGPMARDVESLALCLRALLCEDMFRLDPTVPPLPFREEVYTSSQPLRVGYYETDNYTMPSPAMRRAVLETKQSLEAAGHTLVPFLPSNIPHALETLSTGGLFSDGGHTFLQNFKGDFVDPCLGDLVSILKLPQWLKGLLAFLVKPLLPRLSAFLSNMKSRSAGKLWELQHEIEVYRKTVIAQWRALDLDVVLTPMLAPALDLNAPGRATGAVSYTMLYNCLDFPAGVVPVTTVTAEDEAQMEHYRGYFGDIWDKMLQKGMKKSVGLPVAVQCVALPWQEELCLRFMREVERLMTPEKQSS
Procedure: For preparing the rat, mouse and human FAAH recombinant protein, the corresponding FAAH cDNAs were excised from the Bluescript II vectors and separately ligated into the eukaryotic expression vector, pcDNA3 (Invitrogen, San Diego, Calif.). 100 mm dishes of COS-7 cells were grown at 37° C. to 70% confluency in complete medium (DMEM with L-glutamine, non-essential amino acids, sodium pyruvate and fetal bovine serum). The COS-7 cells were then washed with serum-free medium and treated with 5 ml of transfection solution (5-6 μg of FAAH-pcDNA3 vector were preincubated with transfectamine (Gibco-BRL) for 30 minutes in 1 ml of serum free medium, then diluted to a final volume of 5 ml with serum free medium). The COS-7 cells were incubated at 37° C. for 5 hours, at which point 10 ml of complete medium was added to the cells and incubation was continued at 37° C. for 12 hours. The transfection solution was then aspirated away from the COS-7 cells, and the cells were incubated in a fresh batch of complete medium for another 24 hours. […]
While untransfected COS-7 cells contained negligible amounts of oleamide hydrolase activity, COS-7 cells transfected with the rat FAAH cDNA expressed high levels of oleamide hydrolase activity (FIG. 15A). The assay was performed as described in Section B where by TLC the conversion of oleamide to oleic acid was assessed.

[3] = target: T3, FAAH activity of a rat brain membrane fraction (Rattus norvegicus, UniProt P97612); conditions: rat brain membrane fractions, TLC
T3 construct: Cis-9,10-octadecenoamide with rat brain membrane fraction +1 mM phenylmethylsulfonyl fluoride (PMSF); from tissue; host or cells: rat brain membrane fraction
T3 sequence (P97612 1-579): T1 sequence (P97612 1-579)
Procedure: In each case the enzymic reaction is performed is a separate reaction vessel and the product is spotted onto a TLC plate.

CCCCCCCC/C=C\CCCCCCCC(N)=O [cis-9,10-octadecenoamide, Cis-9,10-octadecenoamide]
rate difference between hydrolysis of oleamide and stearic amide [1]: nearly twenty fold | % of FAAH activity (oleamide hydrolysis rate = 100%) ([1]; 20 μM substrate): 100% | Rate of Hydrolysis ([1]; 20 μM substrate): 41 ± 2 nmol/min/mg | % of FAAH activity (anandamide hydrolysis rate = 100%) ([1]; 100 μM substrate): 72.6% | Rate of Hydrolysis ([1]; 100 μM substrate): 242 ± 20 nmol/min/mg | conversion of oleamide to oleic acid by human FAAH-transfected COS-7 cells (qualitative, TLC) [2]: conversion to oleic acid is seen only in lane 2 | conversion of 14C-cis-9,10-octadecenoamide to oleic acid [3]: Rapid conversion
